# Results reported in ChEMBL document CHEMBL1140084, “Discovery and evaluation of 4-(2-(4-chloro-1H-pyrazol-1-yl)ethylamino)-3-(6-(1-(3-fluoropropyl)piperidin-4-yl)-4-methyl-1H-benzo[d]imidazol-2-yl)pyridin-2(1H)-one (BMS-695735), an orally efficacious inhibitor of insulin-like growth factor-1 receptor kinase with broad spectrum in vivo antitumor …” (J Med Chem, 2008).
# Calls of active or inactive are those of the source. The calls are words filed in the database; no cut-off is given here.
# Columns and labels:
# [1] = target: T1, Nuclear receptor subfamily 1 group I member 2 (Homo sapiens, UniProt O75469); experiment: Induction of PXR transactivation
# T1 sequence (O75469 whole entry): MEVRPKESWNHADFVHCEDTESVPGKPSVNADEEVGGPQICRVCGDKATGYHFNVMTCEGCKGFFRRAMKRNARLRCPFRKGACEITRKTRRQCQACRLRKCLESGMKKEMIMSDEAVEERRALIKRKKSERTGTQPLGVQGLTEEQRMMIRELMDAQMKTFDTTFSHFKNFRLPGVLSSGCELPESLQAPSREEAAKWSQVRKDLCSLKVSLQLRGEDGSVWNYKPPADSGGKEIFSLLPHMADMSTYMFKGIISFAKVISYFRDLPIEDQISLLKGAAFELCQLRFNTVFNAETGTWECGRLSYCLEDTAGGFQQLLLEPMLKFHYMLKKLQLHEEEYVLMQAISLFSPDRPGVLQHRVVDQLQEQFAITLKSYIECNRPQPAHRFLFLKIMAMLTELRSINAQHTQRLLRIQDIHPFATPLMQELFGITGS
# [2] = AUC in mouse at 20 mg/kg after 4 hrs; assay type: ADME, organism-based; set-up: time < 4 hr, dose 20 mg/kg; conditions: plasma
# Cytochrome P450 3A4 = Cytochrome P450 3A4 (Homo sapiens, UniProt P08684); experiment: Inhibition of human recombinant CYP3A4 in human liver microsomes using BFC as a substrate
# [3] = Antiproliferative activity against transgenic mouse SAL cells overexpressing human IGF1R assessed as [3H]thymidine incorporation after 72 hrs
# [4] = Half life in dog at 2 mg/kg, iv and 10 mg/kg, po; assay type: ADME, organism-based, Canis lupus familiaris; conditions: in vivo
# [5] = Half life in rat at 2 mg/kg, iv and 10 mg/kg, po; assay type: ADME, organism-based; conditions: in vivo
# [6] = Oral bioavailability in rat at 10 mg/kg; assay type: ADME, organism-based; conditions: in vivo
# [7] = Volume of distribution at steady state in dog at 2 mg/kg, iv and 10 mg/kg, po; assay type: ADME, organism-based, Canis lupus familiaris; conditions: in vivo, read-out: Vdss
# [8] = Aqueous solubility of the compound; assay type: physicochemical; conditions: buffer
# Cytochrome P450 2C19 = Cytochrome P450 2C19 (Homo sapiens, UniProt P33261); experiment: Inhibition of human recombinant CYP2C19 in human liver microsomes; assay type: ADME, Microsome
# Cytochrome P450 1A2 = Cytochrome P450 1A2 (Homo sapiens, UniProt P05177); experiment: Inhibition of human recombinant CYP1A2 in human liver microsomes; assay type: ADME, Microsome
# Focal adhesion kinase 1 = Focal adhesion kinase 1 (Homo sapiens, UniProt Q05397)
# [9] = Oral bioavailability in monkey at 10 mg/kg; assay type: ADME, organism-based, Macaca mulatta; conditions: rhesus monkey, in vivo
# [10] = Cmax in dog at 10 mg/kg, po; assay type: ADME, organism-based, Canis lupus familiaris; set-up: dose 10 mg/kg, route oral; conditions: in vivo
# [11] = target: Protein kinase C delta type (Homo sapiens, UniProt Q05655); experiment: Inhibition of PKCdelta
# [12] = Half life in mouse at 5 mg/kg, iv and 50 mg/kg, po; assay type: ADME, organism-based; conditions: in vivo
# Phosphodiesterase 4 = Phosphodiesterase 4 (Homo sapiens, UniProt P27815+Q08499+Q07343+Q08493); experiment: Inhibition of human PDE4 in U937 cells; assay type: cell-based; conditions: u-937
# Mus musculus [13] = experiment: Induction of glucose homeostasis in mouse assessed as glucose elevation at 50 mg/kg after glucose challenge by OGTT; assay type: functional, organism-based; set-up: dose 50 mg/kg
# [14] = Volume of distribution at steady state in mouse at 5 mg/kg, iv and 50 mg/kg, po; assay type: ADME, organism-based; conditions: in vivo, read-out: Vdss
# [15] = Oral bioavailability in dog at 10 mg/kg; assay type: ADME, organism-based, Canis lupus familiaris; conditions: in vivo
# [16] = Apparent permeability across human CaCo2 cells; assay type: ADME, cell-based; conditions: Caco-2
# [17] = Inhibition of IRK
# Hepatocyte = experiment: Cytotoxicity against human hepatocytes; assay type: cell-based
# [18] = Antitumor activity against human Geo cell xenografted nu/nu athymic mouse at 100 mg/kg, po bid for 21 days; assay type: functional; conditions: 504 h, read-out: TGI
# [19] = Cmax in rat at 10 mg/kg, po; assay type: ADME, organism-based; set-up: dose 10 mg/kg, route oral; conditions: in vivo
# [20] = Total clearance in rat at 2 mg/kg, iv and 10 mg/kg, po; assay type: ADME, organism-based; conditions: in vivo
# [21] = Antitumor activity against human JJN3 cell xenografted nu/nu athymic mouse at 100 mg/kg, po bid for 21 days; assay type: functional; conditions: JJN-3, 504 h, read-out: TGI
# [22] = Volume of distribution at steady state in monkey at 2 mg/kg, iv and 10 mg/kg, po; assay type: ADME, organism-based, Macaca mulatta; conditions: rhesus monkey, in vivo, read-out: Vdss
# Mus musculus [23] = experiment: Induction of glucose homeostasis in mouse assessed as glucose elevation at 50 to 100 mg/kg prior to glucose challenge by OGTT; assay type: functional, organism-based
# [24] = Inhibition of GST-tagged IKK
# [25] = target: Fibroblast growth factor receptor 1 (Homo sapiens, UniProt P11362); experiment: Inhibition of human recombinant FGFR1
# Cytochrome P450 2D6 = Cytochrome P450 2D6 (Homo sapiens, UniProt P10635); experiment: Inhibition of human recombinant CYP2D6 in human liver microsomes; assay type: ADME, Microsome
# [26] = target: MAP kinase-activated protein kinase 2 (Homo sapiens, UniProt P49137); experiment: Inhibition of MK2
# [27] = target: RAC-alpha serine/threonine-protein kinase (Homo sapiens, UniProt P31749); experiment: Inhibition of AKT
# Cytochrome P450 2C9 = Cytochrome P450 2C9 (Homo sapiens, UniProt P11712); experiment: Inhibition of human recombinant CYP2C9 in human liver microsomes; assay type: ADME, Microsome
# [28] = target: Vascular endothelial growth factor receptor 2 (Homo sapiens, UniProt P35968); experiment: Inhibition of GST-tagged KDR
# Mus musculus [29] = experiment: Induction of glucose homeostasis in mouse assessed as glucose elevation at 100 mg/kg after glucose challenge by OGTT; assay type: functional, organism-based; set-up: dose 100 mg/kg
# [30] = target: Insulin-like growth factor 1 receptor (Homo sapiens, UniProt P08069); experiment: Inhibition of human IGF1R expressed in transgenic mouse IGFSal cells; assay type: cell-based
# [31] = Half life in monkey at 2 mg/kg, iv and 10 mg/kg, po; assay type: ADME, organism-based, Macaca mulatta; conditions: rhesus monkey, in vivo
# [32] = Total clearance in monkey at 2 mg/kg, iv and 10 mg/kg, po; assay type: ADME, organism-based, Macaca mulatta; conditions: rhesus monkey, in vivo
# [33] = Volume of distribution at steady state in rat at 2 mg/kg, iv and 10 mg/kg, po; assay type: ADME, organism-based; conditions: in vivo, read-out: Vdss
# [34] = Cmax in monkey at 10 mg/kg, po; assay type: ADME, organism-based, Macaca mulatta; set-up: dose 10 mg/kg, route oral; conditions: rhesus monkey, in vivo
# [35] = Protein binding in mouse plasma at 10 uM by equilibrium dialysis; assay type: ADME, cell-free; conditions: read-out: PPB (converted)
# [36] = target: Mitogen-activated protein kinase 14 (Homo sapiens, UniProt Q16539); experiment: Inhibition of p38alpha
# [37] = target: Epidermal growth factor receptor (Homo sapiens, UniProt P00533); experiment: Inhibition of GST-tagged HER1
# [38] = target: cAMP-dependent protein kinase catalytic subunit beta (Homo sapiens, UniProt P22694); experiment: Inhibition of PKA-B
# [39] = target: Receptor tyrosine-protein kinase erbB-2 (Homo sapiens, UniProt P04626); experiment: Inhibition of GST-tagged HER2
# [40] = Oral bioavailability in mouse at 50 mg/kg; assay type: ADME, organism-based; conditions: in vivo
# [41] = Cmax in mouse at 50 mg/kg, po; assay type: ADME, organism-based; set-up: dose 50 mg/kg, route oral; conditions: in vivo
# [42] = target: Tyrosine-protein kinase ITK/TSK (Homo sapiens, UniProt Q08881); experiment: Inhibition of GST-tagged Emt
# [43] = Total clearance in dog at 2 mg/kg, iv and 10 mg/kg, po; assay type: ADME, organism-based, Canis lupus familiaris; conditions: in vivo
# [44] = Inhibition of His-tagged GSK3
# COLO 205 = experiment: Antitumor activity against human Colo205 cell xenografted nu/nu athymic mouse at 100 mg/kg, po bid for 21 days; assay type: functional; conditions: COLO 205, 504 h, read-out: TGI
# [45] = Antitumor activity against mouse IGFSal cell xenografted nu/nu athymic mouse at 50 mg/kg, po bid for 5 days; assay type: functional; conditions: 120 h, read-out: TGI
# [46] = target: Hepatocyte growth factor receptor (Homo sapiens, UniProt P08581); experiment: Inhibition of GST-tagged Met
# [47] = Total clearance in mouse at 5 mg/kg, iv and 50 mg/kg, po; assay type: ADME, organism-based; conditions: in vivo
# [48] = target: Protein kinase C alpha type (Homo sapiens, UniProt P17252); experiment: Inhibition of PKCalpha
# Chain of Cytochrome P450 3A4 (P08684 whole entry): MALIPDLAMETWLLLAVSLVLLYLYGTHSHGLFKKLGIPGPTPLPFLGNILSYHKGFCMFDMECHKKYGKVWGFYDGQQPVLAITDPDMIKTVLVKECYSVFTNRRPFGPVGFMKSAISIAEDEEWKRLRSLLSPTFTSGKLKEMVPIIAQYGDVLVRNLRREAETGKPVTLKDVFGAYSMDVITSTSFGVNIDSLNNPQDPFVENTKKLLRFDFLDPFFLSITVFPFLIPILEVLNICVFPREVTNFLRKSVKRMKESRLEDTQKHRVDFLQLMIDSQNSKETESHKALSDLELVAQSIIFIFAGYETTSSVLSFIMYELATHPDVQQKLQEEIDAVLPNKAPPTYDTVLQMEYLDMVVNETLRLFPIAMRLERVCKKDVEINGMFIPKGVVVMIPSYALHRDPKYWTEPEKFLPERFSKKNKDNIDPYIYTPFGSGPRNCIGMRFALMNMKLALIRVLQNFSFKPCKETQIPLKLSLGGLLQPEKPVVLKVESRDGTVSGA
# Chain of Epidermal growth factor receptor (P00533 whole entry): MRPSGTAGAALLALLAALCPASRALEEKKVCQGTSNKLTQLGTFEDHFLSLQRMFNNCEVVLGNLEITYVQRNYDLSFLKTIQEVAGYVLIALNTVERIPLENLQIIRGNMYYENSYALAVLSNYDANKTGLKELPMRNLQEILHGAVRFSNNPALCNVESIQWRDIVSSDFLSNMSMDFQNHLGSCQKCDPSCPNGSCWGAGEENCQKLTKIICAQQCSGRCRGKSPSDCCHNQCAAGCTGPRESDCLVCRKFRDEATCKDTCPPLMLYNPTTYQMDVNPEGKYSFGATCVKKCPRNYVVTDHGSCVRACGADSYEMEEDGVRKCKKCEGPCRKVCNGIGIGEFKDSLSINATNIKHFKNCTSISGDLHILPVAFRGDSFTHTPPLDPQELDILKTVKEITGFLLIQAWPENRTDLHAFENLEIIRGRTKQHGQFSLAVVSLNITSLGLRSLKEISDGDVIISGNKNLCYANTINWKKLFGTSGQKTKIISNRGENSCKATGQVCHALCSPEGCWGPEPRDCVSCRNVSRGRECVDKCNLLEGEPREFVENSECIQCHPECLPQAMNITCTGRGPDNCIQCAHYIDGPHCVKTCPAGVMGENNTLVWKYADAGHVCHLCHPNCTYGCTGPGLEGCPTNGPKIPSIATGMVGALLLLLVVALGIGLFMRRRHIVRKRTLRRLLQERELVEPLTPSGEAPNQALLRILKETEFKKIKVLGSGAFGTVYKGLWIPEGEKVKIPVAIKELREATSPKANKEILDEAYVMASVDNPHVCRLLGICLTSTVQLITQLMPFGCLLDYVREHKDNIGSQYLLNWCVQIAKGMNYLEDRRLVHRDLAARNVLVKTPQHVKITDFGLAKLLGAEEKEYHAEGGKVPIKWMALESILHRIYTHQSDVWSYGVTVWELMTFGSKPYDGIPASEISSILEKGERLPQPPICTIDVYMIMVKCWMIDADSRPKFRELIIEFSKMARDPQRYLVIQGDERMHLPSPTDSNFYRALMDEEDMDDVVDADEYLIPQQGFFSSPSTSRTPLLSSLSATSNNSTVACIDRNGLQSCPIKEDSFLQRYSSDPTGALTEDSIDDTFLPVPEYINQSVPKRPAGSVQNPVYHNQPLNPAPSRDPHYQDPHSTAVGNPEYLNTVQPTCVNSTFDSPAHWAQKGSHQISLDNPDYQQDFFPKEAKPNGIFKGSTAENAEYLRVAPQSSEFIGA
# Chain of Fibroblast growth factor receptor 1 (P11362 whole entry): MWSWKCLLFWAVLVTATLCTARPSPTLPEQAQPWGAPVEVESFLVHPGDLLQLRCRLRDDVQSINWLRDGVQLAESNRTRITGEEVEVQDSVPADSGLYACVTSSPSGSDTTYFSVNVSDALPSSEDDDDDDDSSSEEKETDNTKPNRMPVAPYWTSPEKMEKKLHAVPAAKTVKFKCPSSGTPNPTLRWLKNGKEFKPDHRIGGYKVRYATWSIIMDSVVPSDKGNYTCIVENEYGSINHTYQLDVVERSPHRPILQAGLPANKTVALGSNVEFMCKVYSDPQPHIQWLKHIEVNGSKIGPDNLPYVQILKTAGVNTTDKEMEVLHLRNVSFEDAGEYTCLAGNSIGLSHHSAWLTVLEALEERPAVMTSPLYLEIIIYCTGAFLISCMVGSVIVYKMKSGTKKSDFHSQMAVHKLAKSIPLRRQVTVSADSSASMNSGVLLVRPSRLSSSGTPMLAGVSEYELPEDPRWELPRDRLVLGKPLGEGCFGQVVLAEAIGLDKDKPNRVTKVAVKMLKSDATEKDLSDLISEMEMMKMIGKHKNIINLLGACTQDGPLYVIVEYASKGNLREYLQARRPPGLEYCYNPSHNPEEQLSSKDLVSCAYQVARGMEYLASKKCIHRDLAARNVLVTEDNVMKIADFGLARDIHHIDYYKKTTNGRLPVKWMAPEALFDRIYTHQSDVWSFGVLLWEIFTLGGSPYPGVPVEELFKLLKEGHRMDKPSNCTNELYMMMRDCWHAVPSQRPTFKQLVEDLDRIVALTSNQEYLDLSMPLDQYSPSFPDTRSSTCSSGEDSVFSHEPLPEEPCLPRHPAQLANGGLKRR
# Chain of Protein kinase C delta type (Q05655 whole entry): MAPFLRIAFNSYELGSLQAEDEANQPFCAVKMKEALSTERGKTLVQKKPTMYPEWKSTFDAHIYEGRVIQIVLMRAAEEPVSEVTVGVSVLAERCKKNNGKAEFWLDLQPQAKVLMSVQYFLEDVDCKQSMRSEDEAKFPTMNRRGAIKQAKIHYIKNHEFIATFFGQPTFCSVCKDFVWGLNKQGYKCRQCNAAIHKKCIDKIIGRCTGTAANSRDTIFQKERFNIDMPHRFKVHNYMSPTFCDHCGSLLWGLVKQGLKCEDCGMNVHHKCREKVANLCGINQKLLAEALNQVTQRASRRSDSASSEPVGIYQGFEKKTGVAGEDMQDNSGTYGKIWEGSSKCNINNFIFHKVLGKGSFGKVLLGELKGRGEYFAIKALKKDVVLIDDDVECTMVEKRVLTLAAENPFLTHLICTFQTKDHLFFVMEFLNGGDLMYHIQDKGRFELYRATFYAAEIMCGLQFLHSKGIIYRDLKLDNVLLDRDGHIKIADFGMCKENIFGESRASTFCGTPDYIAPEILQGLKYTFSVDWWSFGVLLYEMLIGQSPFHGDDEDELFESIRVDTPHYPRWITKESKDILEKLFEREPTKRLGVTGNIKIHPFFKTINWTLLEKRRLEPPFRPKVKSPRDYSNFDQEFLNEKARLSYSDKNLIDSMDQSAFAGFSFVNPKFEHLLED
# Chain of Cytochrome P450 2D6 (P10635 whole entry): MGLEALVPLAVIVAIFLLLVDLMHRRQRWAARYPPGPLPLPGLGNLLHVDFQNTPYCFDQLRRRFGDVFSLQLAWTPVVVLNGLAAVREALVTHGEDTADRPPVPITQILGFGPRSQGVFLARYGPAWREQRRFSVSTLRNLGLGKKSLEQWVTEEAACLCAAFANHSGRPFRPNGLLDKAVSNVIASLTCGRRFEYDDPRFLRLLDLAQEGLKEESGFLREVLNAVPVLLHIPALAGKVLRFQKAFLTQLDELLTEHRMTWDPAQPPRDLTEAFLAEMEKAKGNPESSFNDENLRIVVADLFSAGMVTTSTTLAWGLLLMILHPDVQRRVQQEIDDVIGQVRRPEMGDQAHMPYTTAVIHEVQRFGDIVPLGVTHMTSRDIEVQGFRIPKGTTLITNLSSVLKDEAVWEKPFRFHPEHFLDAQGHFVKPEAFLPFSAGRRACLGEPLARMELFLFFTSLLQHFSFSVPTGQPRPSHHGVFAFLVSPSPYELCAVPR
# Chain of Mitogen-activated protein kinase 14 (Q16539 whole entry): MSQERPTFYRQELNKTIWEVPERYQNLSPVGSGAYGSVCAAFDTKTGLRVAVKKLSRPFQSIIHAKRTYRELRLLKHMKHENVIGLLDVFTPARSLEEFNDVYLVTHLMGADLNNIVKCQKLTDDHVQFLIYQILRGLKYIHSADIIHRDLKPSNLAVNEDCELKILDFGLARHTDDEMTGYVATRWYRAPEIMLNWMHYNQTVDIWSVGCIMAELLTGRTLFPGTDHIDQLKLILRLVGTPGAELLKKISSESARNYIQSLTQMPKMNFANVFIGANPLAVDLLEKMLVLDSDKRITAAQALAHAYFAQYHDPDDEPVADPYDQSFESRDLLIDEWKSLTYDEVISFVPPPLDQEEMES
# Chain of MAP kinase-activated protein kinase 2 (P49137 whole entry): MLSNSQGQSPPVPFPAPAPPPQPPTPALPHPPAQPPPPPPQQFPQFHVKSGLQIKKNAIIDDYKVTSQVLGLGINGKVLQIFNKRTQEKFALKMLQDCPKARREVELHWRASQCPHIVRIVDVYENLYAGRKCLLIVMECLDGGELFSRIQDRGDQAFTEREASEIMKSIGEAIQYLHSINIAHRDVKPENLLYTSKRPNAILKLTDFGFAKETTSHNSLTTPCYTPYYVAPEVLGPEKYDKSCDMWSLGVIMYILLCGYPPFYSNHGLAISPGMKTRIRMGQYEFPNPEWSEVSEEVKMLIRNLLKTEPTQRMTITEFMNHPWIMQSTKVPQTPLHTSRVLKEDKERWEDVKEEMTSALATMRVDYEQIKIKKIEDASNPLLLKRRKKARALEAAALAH
# Chain of Cytochrome P450 2C9 (P11712 whole entry): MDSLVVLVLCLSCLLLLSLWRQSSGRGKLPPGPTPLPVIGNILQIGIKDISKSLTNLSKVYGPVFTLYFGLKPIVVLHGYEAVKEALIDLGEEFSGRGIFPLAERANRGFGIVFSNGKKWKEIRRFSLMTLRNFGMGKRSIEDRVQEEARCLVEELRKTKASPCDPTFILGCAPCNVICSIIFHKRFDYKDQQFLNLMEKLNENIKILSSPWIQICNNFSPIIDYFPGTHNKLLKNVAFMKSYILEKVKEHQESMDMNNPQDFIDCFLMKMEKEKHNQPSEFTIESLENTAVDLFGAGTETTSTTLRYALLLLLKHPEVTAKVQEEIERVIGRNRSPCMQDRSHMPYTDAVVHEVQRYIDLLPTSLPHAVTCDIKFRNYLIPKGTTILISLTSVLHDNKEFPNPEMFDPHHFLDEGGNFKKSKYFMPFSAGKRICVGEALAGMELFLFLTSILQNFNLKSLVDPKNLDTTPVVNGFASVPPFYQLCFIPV
structure (smiles),measurement,setting,value
Cc1cc(C2CCN(CCO)CC2)cc2[nH]c(-c3c(NCCn4cc(Cl)cn4)cc[nH]c3=O)nc12,EC20,[1],> 50 µM
same,AUC at 4 h,[2],0.1 µM·h
same,IC50,Cytochrome P450 3A4,23 µM
same,IC50,[3],241 nM
Cc1cc(C2CCN(CCCF)CC2)cc2[nH]c(-c3c(NCCn4cc(Cl)cn4)cc[nH]c3=O)nc12,half-life,[4],630 min
same,half-life,[5],240 min
same,bioavailability,[6],23%
same,Vd,[7],21 L/kg
same,solubility,[8],137 µg/mL
same,IC50,Cytochrome P450 2C19,34 µM
same,IC50,Cytochrome P450 1A2,> 40 µM
same,EC20,[1],> 50 µM
same,AUC at 4 h,[2],3.7 µM·h
same,IC50,Focal adhesion kinase 1,165 nM
same,bioavailability,[9],48%
same,Cmax,[10],270 nM
same,IC50,[11],20.3 µM
same,half-life,[12],138 min
same,IC50,Phosphodiesterase 4,4 µM
same,Activity,Mus musculus [13],inactive
same,Vd,[14],18.2 L/kg
same,bioavailability,[15],35%
same,Papp,[16],10.9 ×10⁻⁶ cm/s
same,IC50,[17],72 nM
same,Activity,Hepatocyte,Non-toxic
same,inhibition in vivo at 100 mg/kg,[18],73%
same,Cmax,[19],200 nM
same,clearance,[20],76 mL/min/kg
same,inhibition in vivo at 100 mg/kg,[21],80%
same,Vd,[22],17 L/kg
same,Activity,Mus musculus [23],inactive
same,IC50,[24],> 100 µM
same,IC50,[25],< 5 µM
same,IC50,Cytochrome P450 2D6,> 40 µM
same,IC50,[26],> 50 µM
same,IC50,[27],48.4 µM
same,IC50,Cytochrome P450 2C9,> 40 µM
same,IC50,Cytochrome P450 3A4,26 µM
same,IC50,[28],369 nM
same,Activity,Mus musculus [29],inactive
same,IC50,[30],34 nM
same,half-life,[31],438 min
same,clearance,[32],27 mL/min/kg
same,Vd,[33],20 L/kg
same,Cmax,[34],400 nM
same,fraction unbound at 10 µM,[35],0.131
same,IC50,[36],31 µM
same,IC50,[37],21 µM
same,IC50,[38],37.7 µM
same,IC50,[39],6 µM
same,bioavailability,[40],> 100%
same,Cmax,[41],2300 nM
same,IC50,[42],370 nM
same,clearance,[43],23 mL/min/kg
same,IC50,[3],185 nM
same,IC50,[44],8.56 µM
same,inhibition in vivo at 100 mg/kg,COLO 205,93%
same,inhibition in vivo at 50 mg/kg,[45],81%
same,IC50,[46],3.99 µM
same,clearance,[47],159 mL/min/kg
same,IC50,[48],11 µM
COCCN1CCC(c2cc(C)c3nc(-c4c(NCCn5cc(Cl)cn5)cc[nH]c4=O)[nH]c3c2)CC1,EC20,[1],> 50 µM
same,AUC at 4 h,[2],1.8 µM·h
same,IC50,Cytochrome P450 3A4,19.5 µM
same,fraction unbound at 10 µM,[35],0.038
same,IC50,[3],46 nM
Cc1cc(C2CCN(C)CC2)cc2[nH]c(-c3c(NC[C@@H](O)c4cccc(Cl)c4)cc[nH]c3=O)nc12,EC20,[1],> 50 µM
same,AUC at 4 h,[2],1.2 µM·h
same,IC50,Cytochrome P450 3A4,14 µM
same,IC50,[3],85 nM
Cc1cc(C2CCN(C)CC2)cc2[nH]c(-c3c(NCCn4cc(Cl)cn4)cc[nH]c3=O)nc12,EC20,[1],> 50 µM
same,AUC at 4 h,[2],0.4 µM·h
same,IC50,Cytochrome P450 3A4,40 µM
same,IC50,[3],162 nM
